This experiment has as its system Eschericia coli strain ATCC25922. Description: standard microdilution assay to determine minimum inhibitory concentrations (MICs). The experiment is classed as cell-based. Particulars: Escherichia coli, ATCC25922, Eschericia coli strain ATCC25922, standard microdilution assay; read-out: E. coli ATCC25922 MIC. The method in brief:
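Broth microdilution per CLSI protocols, typically 100 µL final volume, against E. coli ATCC25922. MIC values scored as +/− against a cutoff of 16 micrograms/ml.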

SMILES strings stand for the structures. A value given as a limit tells only on which side of the number the result lay.

Broadly, the MIC is the least concentration at which growth counts as inhibited.

Regarding `N=C(N)NCCCCCN1CCN(c2c[nH]c(Nc3nc4ccccc4[nH]3)nc2=O)CC1` [Compound 515], the MIC is > 16 µg/mL.
Take `NCCCN1CCCC(c2c[nH]c(NC(=O)Nc3ccccc3OC(F)(F)F)nc2=O)CC1` (stereo not drawn) [Compound 516]: the MIC was > 16 µg/mL.
As for `N=C(N)NCCCN1CCCC(c2c[nH]c(NC(=O)Nc3ccccc3OC(F)(F)F)nc2=O)CC1` (stereo not drawn) [Compound 517], the MIC is > 16 µg/mL.
Under `NCCCCCN1CCN(c2c[nH]c(NC(=O)Nc3ccccc3OC(F)(F)F)nc2=O)CC1` [Compound 518] stands > 16 µg/mL; under `N=C(N)NCCCCCN1CCN(c2c[nH]c(NC(=O)Nc3ccccc3OC(F)(F)F)nc2=O)CC1` [Compound 519], > 16 µg/mL; under `NCCCCN1CCN(c2c[nH]c(NC(=O)Nc3cc(F)c(F)cc3F)nc2=O)CC1` [Compound 520], > 16 µg/mL.
In the case of `NCCCCN1CCN(c2c[nH]c(NC(=O)Nc3cccc(Cl)c3F)nc2=O)CC1` [Compound 521] it was > 16 µg/mL; in that of `NCCCCN1CCN(c2c[nH]c(NC(=O)Nc3ccccc3OC(F)(F)F)nc2=O)CC1` [Compound 522], > 16 µg/mL; in that of `NCCCCN1CCCC(c2c[nH]c(NC(=O)Nc3ccccc3OC(F)(F)F)nc2=O)CC1` (stereo not drawn) [Compound 524], > 16 µg/mL.
Under `N=C(N)NCCCCN1CCCC(c2c[nH]c(NC(=O)Nc3ccccc3OC(F)(F)F)nc2=O)CC1` (stereo not drawn) [Compound 525] stands > 16 µg/mL; under `COc1nc(NC(=O)NCCc2nc3ccccc3o2)ncc1-c1ccc(CNCCCN)c(F)c1` [Compound 526], > 16 µg/mL.
With `NCCCN1CC2(CCN(c3c[nH]c(NC(=O)Nc4ccccc4OC(F)(F)F)nc3=O)C2)C1` [Compound 527], the MIC was > 16 µg/mL.
`NCCCCN1CCN(c2c[nH]c(Nc3nc4ccccc4[nH]3)nc2=O)CC1` [Compound 530]: the MIC was > 16 µg/mL.
Under `N=C(N)NCCCCN1CCN(c2c[nH]c(Nc3nc4ccccc4[nH]3)nc2=O)CC1` [Compound 531] stands > 16 µg/mL.
Under `N=C(N)NCCCCN1CCN(c2c[nH]c(NC(=O)Nc3ccccc3OC(F)(F)F)nc2=O)CC1` [Compound 534] stands > 16 µg/mL; under `NCCCCN1CCC(c2c[nH]c(NC(=O)Nc3cc(F)c(F)cc3F)nc2=O)CC1` [Compound 535], > 16 µg/mL; under `NCCCCN1CCC(c2c[nH]c(NC(=O)Nc3cccc(Cl)c3F)nc2=O)CC1` [Compound 536], > 16 µg/mL.
With `NCCCCN1CCC(c2c[nH]c(NC(=O)Nc3ccccc3OC(F)(F)F)nc2=O)CC1` [Compound 537], the MIC was > 16 µg/mL.
Under `NCCCCCN1CCC(c2c[nH]c(NC(=O)Nc3cc(F)c(F)cc3F)nc2=O)CC1` [Compound 538] stands > 16 µg/mL; under `NCCCNCc1ccc(-c2c[nH]c(NC(=O)NCCCc3ccccc3OC(F)(F)F)nc2=O)cc1F` [Compound 539], < 16 µg/mL; under `N=C(N)NCCCNCc1ccc(-c2c[nH]c(NC(=O)NCCCc3ccccc3OC(F)(F)F)nc2=O)cc1F` [Compound 540], > 16 µg/mL.
With `NCCCCCN1CCN(c2c[nH]c(Nc3nc4cc(F)c(F)cc4[nH]3)nc2=O)CC1` [Compound 541], the MIC is > 16 µg/mL.
For the compound `N=C(N)NCCCCCN1CCC(c2c[nH]c(NC(=O)Nc3cc(F)c(F)cc3F)nc2=O)CC1` [Compound 545], the MIC was > 16 µg/mL.
In the case of `N=C(N)NCCCCN1CCC(c2c[nH]c(NC(=O)Nc3cc(F)c(F)cc3F)nc2=O)CC1` [Compound 546] it was > 16 µg/mL; in that of `N=C(N)NCCCCN1CCC(c2c[nH]c(NC(=O)Nc3cccc(Cl)c3F)nc2=O)CC1` [Compound 547], > 16 µg/mL.
Under `N=C(N)NCCCCN1CCC(c2c[nH]c(NC(=O)Nc3ccccc3OC(F)(F)F)nc2=O)CC1` [Compound 548] stands > 16 µg/mL; under `NCCCCCN1CCC(c2c[nH]c(NC(=O)Nc3cccc(Cl)c3F)nc2=O)CC1` [Compound 549], > 16 µg/mL; under `NCCCCCN1CCC(c2c[nH]c(NC(=O)Nc3ccccc3OC(F)(F)F)nc2=O)CC1` [Compound 550], > 16 µg/mL.
On to `NCCCNCc1ccc(-c2c[nH]c(NC(=O)Nc3cc(F)c(F)cc3F)nc2=O)cn1` [Compound 551], for which the MIC was > 16 µg/mL.
Under `NCCCNCc1ccc(-c2c[nH]c(NC(=O)Nc3cccc(Cl)c3F)nc2=O)cn1` [Compound 552] stands > 16 µg/mL; under `NCCCNCc1ccc(-c2c[nH]c(NC(=O)Nc3ccccc3OC(F)(F)F)nc2=O)cn1` [Compound 553], > 16 µg/mL.
Under `NCCCNCc1ccc(-c2c[nH]c(NC(=O)NCCc3nc4cc(F)c(F)cc4[nH]3)nc2=O)cc1F` [Compound 554] stands > 16 µg/mL.
With `NCCCNCc1ccc(-c2c[nH]c(NC(=O)NCCc3nc4ccccc4[nH]3)nc2=O)cc1F` [Compound 555], the MIC is > 16 µg/mL.
Under `NCCCNCc1ccc(-c2c[nH]c(NC(=O)NCc3nc4ccccc4[nH]3)nc2=O)cc1F` [Compound 556] stands > 16 µg/mL.
Under `N=C(Nc1ccccc1)Nc1nc(=O)c(-c2ccc(CNCCCN)c(F)c2)c[nH]1` [Compound 573] stands > 16 µg/mL.
Under `NCCCNCc1ccc(-c2c[nH]c(NC(=O)NCCCc3cc(F)c(F)cc3F)nc2=O)cc1F` [Compound 574] stands > 16 µg/mL.
`N=C(N)NCCCNCc1ccc(-c2c[nH]c(NC(=O)NCCCc3cc(F)c(F)cc3F)nc2=O)cc1F` [Compound 582]: the minimum inhibitory concentration (MIC) is > 16 µg/mL.
Under `N=C(N)NCCCCCN1CCC(c2c[nH]c(NC(=O)Nc3cccc(Cl)c3F)nc2=O)CC1` [Compound 583] stands > 16 µg/mL; under `N=C(N)NCCCCCN1CCC(c2c[nH]c(NC(=O)Nc3ccccc3OC(F)(F)F)nc2=O)CC1` [Compound 584], > 16 µg/mL; under `N=C(N)NCCCNCc1ccc(-c2c[nH]c(NC(=O)Nc3cc(F)c(F)cc3F)nc2=O)cn1` [Compound 585], > 16 µg/mL.
In the case of `NCCCNCc1ccc(-c2c[nH]c(Nc3nc4ccccc4o3)nc2=O)cc1F` [Compound 588] it was < 16 µg/mL; in that of `COc1nc(Nc2nc3ccccc3o2)ncc1-c1ccc(CNCCCN)c(F)c1` [Compound 589], > 16 µg/mL; in that of `N=C(N)NCCCNCc1ccc(-c2c[nH]c(NC(=O)Nc3cccc(Cl)c3F)nc2=O)cn1` [Compound 593], < 16 µg/mL.
For the compound `N=C(N)NCCCNCc1ccc(-c2c[nH]c(NC(=O)Nc3ccccc3OC(F)(F)F)nc2=O)cn1` [Compound 594], the MIC was < 16 µg/mL.
In the case of `NCCCCNC1CCN(c2c[nH]c(NC(=O)Nc3ccccc3OC(F)(F)F)nc2=O)CC1` [Compound 599] it was > 16 µg/mL; in that of `N=C(N)NCCCCNC1CCN(c2c[nH]c(NC(=O)Nc3ccccc3OC(F)(F)F)nc2=O)CC1` [Compound 605], > 16 µg/mL; in that of `NCCCNCc1ccc(-c2c[nH]c(NCCc3nc4cc(F)c(F)cc4[nH]3)nc2=O)cc1F` [Compound 607], > 16 µg/mL.
In the case of `NCCCNCc1ccc(-c2c[nH]c(NCCc3nc4cc(F)c(F)cc4o3)nc2=O)cc1F` [Compound 608] it was > 16 µg/mL.
`NCCCCNC1CCN(c2c[nH]c(NC(=O)Nc3cc(F)c(F)cc3F)nc2=O)CC1` [Compound 619]: the MIC is > 16 µg/mL.
Under `N=C(N)NCCCNCc1ccc(-c2c[nH]c(NC(=O)NC3CCN(Cc4cc(F)c(F)cc4F)CC3)nc2=O)cc1` [Compound 652] stands > 16 µg/mL; under `N=C(N)NCCCN(CCC1CC1)Cc1ccc(-c2c[nH]c(NC(=O)Nc3cc(F)c(F)cc3F)nc2=O)cc1` [Compound 680], > 16 µg/mL; under `NCCCNCc1ccc(-c2c[nH]c(NC(=O)NC3CN(Cc4cc(F)c(F)cc4F)C3)nc2=O)cc1` [Compound 710], > 16 µg/mL.
Under `N=C(N)NCCCNCc1ccc(-c2c[nH]c(NC(=O)NC3CN(Cc4cc(F)c(F)cc4F)C3)nc2=O)cc1` [Compound 712] stands > 16 µg/mL.
In the case of `N=C(N)NCCCNCc1ccc(-c2c[nH]c(NC(=O)NC3CCN(Cc4cc(F)c(F)cc4F)C3)nc2=O)cc1` (stereo not drawn) [Compound 735] it was > 16 µg/mL.
For the compound `N=C(N)NCCCNCc1ccc(-c2c[nH]c(NC(=O)NCCOc3cc(F)c(F)cc3F)nc2=O)cc1` [Compound 739], the MIC was > 16 µg/mL.
Under `N=C(N)NCCCNCc1ccc(-c2c[nH]c(NC(=O)NC3CN(C(=O)Nc4cc(F)c(F)cc4F)C3)nc2=O)cc1` [Compound 747] stands < 16 µg/mL; under `N=C(N)NCCCNCc1ccc(-c2c[nH]c(NC(=O)NC3CN(S(=O)(=O)c4cc(F)cc(F)c4F)C3)nc2=O)cc1` [Compound 779], > 16 µg/mL; under `N=C(N)NCCCNCc1ccc(-c2c[nH]c(NC(=O)NC3CN(C(=O)c4cc(F)cc(F)c4F)C3)nc2=O)cc1` [Compound 780], > 16 µg/mL.
`CN(C)CCCOc1ccccc1NC(=O)Nc1nc(=O)c(-c2ccc(CNCCCN)cc2)c[nH]1` [Compound 1291]: the MIC was > 16 µg/mL.
Under `NCCCNCc1ccc(-c2c[nH]c(NC(=O)Nc3ccccc3OCCCO)nc2=O)cc1` [Compound 1294] stands > 16 µg/mL; under `NCCCNCc1ccc(-c2c[nH]c(NC(=O)Nc3ccccc3OCCNC(N)=O)nc2=O)cc1` [Compound 1295], > 16 µg/mL.
Under `NCCCNCc1ccc(-c2c[nH]c(NC(=O)Nc3ccccc3OCCCN)nc2=O)cc1` [Compound 1296] stands > 16 µg/mL.
Under `NCCCNCc1ccc(-c2c[nH]c(NC(=O)Nc3ccccc3OCCCC(=O)O)nc2=O)cc1` [Compound 1297] stands > 16 µg/mL; under `CCN[C@@H]1CCCCC1NC(=O)Nc1nc(=O)c(-c2ccc(CN)cc2)c[nH]1` (stereo partly drawn) [Compound 1302], > 16 µg/mL.
With `NCCCN1CCC[C@H](NC(=O)Nc2nc(=O)c(-c3ccc(CN)cc3)c[nH]2)C1` [Compound 1303], the MIC is > 16 µg/mL.
As for `NCCCN1CCC[C@@H](NC(=O)Nc2nc(=O)c(-c3ccc(CN)cc3)c[nH]2)C1` [Compound 1304], the MIC is > 16 µg/mL.
Under `NCc1ccc(-n2ccc(NC(=O)NC3CCCNC3)nc2=O)cc1` (stereo not drawn) [Compound 1305] stands > 16 µg/mL; under `NCc1ccc(-c2c[nH]c(NC(=O)NC3CCCN(CCO)C3)nc2=O)cc1` (stereo not drawn) [Compound 1317], > 16 µg/mL.
Under `NCCCN[C@@H]1CCCCC1NC(=O)Nc1nc(=O)c(-c2ccc(CN)cc2)c[nH]1` (stereo partly drawn) [Compound 1338] stands > 16 µg/mL.

Source of the values: patent US9845297B2, “Antimicrobial compounds and methods of making and using the same” (Melinta Therapeutics, Inc., priority 2009, dated 2017).
